Tests used:
Assay type in all cases: in vivo
[1] = tested on: kochia (Kochia scoparia); assay: Test A postemergence application, visual injury rating; details: 0 to 100 scale, 0 no effect, 100 complete control
Text: (§1) Seeds of plant species selected from barnyardgrass (Echinochloa crus-galli), kochia (Kochia scoparia), ragweed (common ragweed, Ambrosia elatior), ryegrass, It. (Italian ryegrass, Lolium multiflorum), foxtail, giant (giant foxtail, Setaria faberii), and pigweed (Amaranthus retroflexus), were planted into a blend of loam soil and sand and treated preemergence with a directed soil spray using test chemicals formulated in a non-phytotoxic solvent mixture which included a surfactant.
(§2) At the same time, plants selected from these weed species and also wheat (Triticum aestivum), corn (Zea mays), blackgrass (Alopecurus myosuroides), and galium (catchweed bedstraw, Galium aparine), were planted in pots containing the same blend of loam soil and sand and treated with postemergence applications of test chemicals formulated in the same manner Plants ranged in height from 2 to 10 cm and were in the one- to two-leaf stage for the postemergence treatment. Treated plants and untreated controls were maintained in a greenhouse for approximately 10 d, after which time all treated plants were compared to untreated controls and visually evaluated for injury. Plant response ratings, summarized in Table A, are based on a 0 to 100 scale where 0 is no effect and 100 is complete control. A dash (-) response means no test result.

[2] = tested on: pigweed (Amaranthus retroflexus); assay: as above; details: for Pigweed plant response rating: 0 to 100 scale, 0 no effect, 100 complete control
Text: as §1, §2

[3] = tested on: foxtail, giant (giant foxtail, Setaria faberii); assay: as above; details: for Foxtail, Giant plant response rating: 0 to 100 scale, 0 no effect, 100 complete control
Text: as §1, §2

[4] = tested on: galium (catchweed bedstraw, Galium aparine); assay: as above; details: for Galium plant response rating: 0 to 100 scale, 0 no effect, 100 complete control
Text: as §1, §2

[5] = tested on: ryegrass, It. (Italian ryegrass, Lolium multiflorum); assay: as above; details: for Ryegrass, It. plant response rating: 0 to 100 scale, 0 no effect, 100 complete control
Text: as §1, §2

[6] = tested on: wheat (Triticum aestivum); assay: as above; details: for Wheat plant response rating: 0 to 100 scale, 0 no effect, 100 complete control
Text: as §1, §2

[7] = tested on: blackgrass (Alopecurus myosuroides); assay: as above; details: 0 to 100 scale, 0 no effect, 100 complete control
Text: as §1, §2

[8] = tested on: ragweed (common ragweed, Ambrosia elatior); assay: as above; details: for Ragweed plant response rating: 0 to 100 scale, 0 no effect, 100 complete control
Text: as §1, §2

[9] = tested on: corn (Zea mays); assay: as above; details: for Corn plant response rating: 0 to 100 scale, 0 no effect, 100 complete control
Text: as §1, §2

[10] = tested on: barnyardgrass (Echinochloa crus-galli); assay: as above; details: 0 to 100 scale, 0 no effect, 100 complete control
Text: as §1, §2

[11] = tested on: ducksalad (Heteranthera limosa); assay: Test B flooded paddy test, visual rating; details: Flood, 250 g ai/ha, applied to paddy water, rated after 13 to 15 d
Experimental: (§3) Plant species in the flooded paddy test selected from rice (Oryza sativa), sedge, umbrella (small-flower umbrella sedge, Cyperus difformis), ducksalad (Heteranthera limosa), and barnyardgrass (Echinochloa crus-galli) were grown to the 2-leaf stage for testing. At time of treatment, test pots were flooded to 3 cm above the soil surface, treated by application of test compounds directly to the paddy water, and then maintained at that water depth for the duration of the test. Treated plants and controls were maintained in a greenhouse for 13 to 15 d, after which time all species were compared to controls and visually evaluated. Plant response ratings, summarized in Table B, are based on a scale of 0 to 100 where 0 is no effect and 100 is complete control. A dash (-) response means no test result.

[12] = tested on: rice (Oryza sativa); assay: Test B flooded paddy test, visual rating; details: Flood, 250 g ai/ha, applied to paddy water, rated after 13 to 15 d
Experimental: as §3

[13] = tested on: sedge, umbrella (small-flower umbrella sedge, Cyperus difformis); assay: Test B flooded paddy test, visual rating; details: Flood, 250 g ai/ha, applied to paddy water, rated after 13 to 15 d
Experimental: as §3

[14] = tested on: barnyardgrass (Echinochloa crus-galli); assay: Test B flooded paddy test, visual rating; details: Flood, 250 g ai/ha, applied to paddy water, rated after 13 to 15 d
Experimental: as §3

[15] = tested on: kochia (Kochia scoparia); assay: Test A preemergence, directed soil spray, visual injury rating; details: 0 is no effect, 100 is complete control
Text: as §1, §2

[16] = tested on: pigweed (Amaranthus retroflexus); assay: as above; details: 0 is no effect, 100 is complete control
Text: as §1, §2

[17] = tested on: foxtail, giant (giant foxtail, Setaria faberii); assay: as above; details: 0 is no effect, 100 is complete control
Text: as §1, §2

[18] = tested on: ryegrass, It. (Italian ryegrass, Lolium multiflorum); assay: as above; details: 0 is no effect, 100 is complete control
Text: as §1, §2

[19] = tested on: ragweed (common ragweed, Ambrosia elatior); assay: as above; details: 0 is no effect, 100 is complete control
Text: as §1, §2

[20] = tested on: barnyardgrass (Echinochloa crus-galli); assay: as above; details: 0 is no effect, 100 is complete control
Text: as §1, §2

[21] = 31 g ai/ha, 0 is no effect, 100 is complete control

SMILES | Kochia plant response rating ([1]; 125 g ai/ha) | Pigweed plant response rating ([2]; 125 g ai/ha) | Foxtail, Giant plant response rating ([3]; 125 g ai/ha) | Galium plant response rating ([4]; 125 g ai/ha) | Ryegrass, It. plant response rating ([5]; 125 g ai/ha) | Wheat plant response rating ([6]; 125 g ai/ha) | Blackgrass plant response rating ([7]; 125 g ai/ha) | Ragweed plant response rating ([8]; 125 g ai/ha) | Corn plant response rating ([9]; 125 g ai/ha) | Barnyardgrass plant response rating ([10]; 125 g ai/ha) | Ducksalad plant response rating (0 to 100 scale, 0 is no effect, 100 is complete control) [11] | Rice plant response rating (0 to 100 scale, 0 is no effect, 100 is complete control) [12] | Sedge, Umbrella plant response rating (0 to 100 scale, 0 is no effect, 100 is complete control) [13] | Barnyardgrass plant response rating (0 to 100 scale, 0 is no effect, 100 is complete control) [14] | Plant response rating (0 to 100 scale), Kochia ([15]; 125 g ai/ha) | Plant response rating (0 to 100 scale), Pigweed ([16]; 125 g ai/ha) | Plant response rating (0 to 100 scale), Foxtail, Giant ([17]; 125 g ai/ha) | Plant response rating (0 to 100 scale), Ryegrass, It. ([18]; 125 g ai/ha) | Plant response rating (0 to 100 scale), Ragweed ([19]; 125 g ai/ha) | Plant response rating (0 to 100 scale), Barnyardgrass ([20]; 125 g ai/ha) | further results
Cc1ccc2ccoc2c1-c1c(O)c(C)nn(C)c1=O [Compound 7] | 100 | 90 | 80 | 100 | 100 | 20 | 80 | 90 | 0 | 30 | 0 | 0 | 0 | 0 | 30 | 100 | 20 | 100 | 40 | 10 | Kochia plant response rating ([1]; 500 g ai/ha): 100; Pigweed plant response rating ([2]; 500 g ai/ha): 90; Foxtail, Giant plant response rating ([3]; 500 g ai/ha): 90; Galium plant response rating ([4]; 500 g ai/ha): 100; Ryegrass, It. plant response rating ([5]; 500 g ai/ha): 100; Wheat plant response rating ([6]; 500 g ai/ha): 70; Blackgrass plant response rating ([7]; 500 g ai/ha): 90; Ragweed plant response rating ([8]; 500 g ai/ha): 90; Corn plant response rating ([9]; 500 g ai/ha): 60; Barnyardgrass plant response rating ([10]; 500 g ai/ha): 80; Plant response rating (0 to 100 scale), Kochia ([15]; 500 g ai/ha): 90; Plant response rating (0 to 100 scale), Pigweed ([16]; 500 g ai/ha): 100; Plant response rating (0 to 100 scale), Foxtail, Giant ([17]; 500 g ai/ha): 90; Plant response rating (0 to 100 scale), Ryegrass, It. ([18]; 500 g ai/ha): 100; Plant response rating (0 to 100 scale), Ragweed ([19]; 500 g ai/ha): 90; Plant response rating (0 to 100 scale), Barnyardgrass ([20]; 500 g ai/ha): 90
CC(=O)Oc1c(C)nn(C)c(=O)c1-c1ccc(Cl)c2oc(C)cc12 [Compound 54] | 10 | 40 | 0 | 70 | 60 | 0 | 0 | 0 | 0 | 0 | 0 | 0 | 70 | 0 | 0 | 20 | 0 | 50 | 10 | 0 | Kochia plant response rating ([1]; 31 g ai/ha): 0; Pigweed plant response rating ([2]; 31 g ai/ha): 30; Foxtail, Giant plant response rating ([3]; 31 g ai/ha): 0; Galium plant response rating ([4]; 31 g ai/ha): 50; Ryegrass, It. plant response rating ([5]; 31 g ai/ha): 20; Wheat plant response rating ([6]; 31 g ai/ha): 0; Blackgrass plant response rating ([7]; 31 g ai/ha): 0; Ragweed plant response rating ([8]; 31 g ai/ha): 0; Corn plant response rating ([9]; 31 g ai/ha): 0; Barnyardgrass plant response rating ([10]; 31 g ai/ha): 0; Plant response rating (0 to 100 scale), Kochia ([15]; 31 g ai/ha): 0; Plant response rating (0 to 100 scale), Pigweed ([16]; 31 g ai/ha): 0; Plant response rating (0 to 100 scale), Foxtail, Giant ([17]; 31 g ai/ha): 0; Plant response rating (0 to 100 scale), Ryegrass, It. ([18]; 31 g ai/ha): 30; Plant response rating (0 to 100 scale), Ragweed ([19]; 31 g ai/ha): 0; Plant response rating (0 to 100 scale), Barnyardgrass ([20]; 31 g ai/ha): 0
CCC(=O)Oc1c(C)nn(C)c(=O)c1-c1ccc(Cl)c2sccc12 [Compound 58] | 60 | 20 | 0 | 90 | 10 | 0 | 0 | 0 | 0 | 0 | 0 | 0 | – | 0 | 70 | 0 | 0 | 50 | 80 | 0 | Kochia plant response rating ([1]; 31 g ai/ha): 0; Pigweed plant response rating ([2]; 31 g ai/ha): 0; Foxtail, Giant plant response rating ([3]; 31 g ai/ha): 0; Galium plant response rating ([4]; 31 g ai/ha): 20; Ryegrass, It. plant response rating ([5]; 31 g ai/ha): 0; Wheat plant response rating ([6]; 31 g ai/ha): 0; Blackgrass plant response rating ([7]; 31 g ai/ha): 0; Ragweed plant response rating ([8]; 31 g ai/ha): 0; Corn plant response rating ([9]; 31 g ai/ha): 0; Barnyardgrass plant response rating ([10]; 31 g ai/ha): 0; Plant response rating (0 to 100 scale), Kochia ([15]; 31 g ai/ha): 0; Plant response rating (0 to 100 scale), Pigweed ([16]; 31 g ai/ha): 20; Plant response rating (0 to 100 scale), Foxtail, Giant ([17]; 31 g ai/ha): 20; Plant response rating (0 to 100 scale), Ryegrass, It. ([18]; 31 g ai/ha): 0; Plant response rating (0 to 100 scale), Ragweed ([19]; 31 g ai/ha): 0; Plant response rating (0 to 100 scale), Barnyardgrass ([20]; 31 g ai/ha): 0
CC(=O)Oc1c(Cl)nn(C)c(=O)c1-c1cccc2cccnc12 [Compound 71] | – | 50 | 30 | 80 | 90 | 30 | 70 | 70 | 0 | 40 | 0 | 0 | 0 | 0 | 30 | 60 | 10 | 80 | 10 | 20 | Plant response rating (0 to 100 scale), Pigweed [2, 21]: 20; Plant response rating (0 to 100 scale), Foxtail, Giant [3, 21]: 10; Plant response rating (0 to 100 scale), Galium [4, 21]: 60; Plant response rating (0 to 100 scale), Ryegrass, It. [5, 21]: 50; Plant response rating (0 to 100 scale), Wheat [6, 21]: 0; Blackgrass plant response rating ([7]; 31 g ai/ha): 10; Plant response rating (0 to 100 scale), Ragweed [8, 21]: 30; Plant response rating (0 to 100 scale), Corn [9, 21]: 0; Barnyardgrass plant response rating ([10]; 31 g ai/ha): 10; Plant response rating (0 to 100 scale), Kochia ([15]; 31 g ai/ha): 0; Plant response rating (0 to 100 scale), Pigweed ([16]; 31 g ai/ha): 0; Plant response rating (0 to 100 scale), Foxtail, Giant ([17]; 31 g ai/ha): 0; Plant response rating (0 to 100 scale), Ryegrass, It. ([18]; 31 g ai/ha): 20; Plant response rating (0 to 100 scale), Ragweed ([19]; 31 g ai/ha): 0; Plant response rating (0 to 100 scale), Barnyardgrass ([20]; 31 g ai/ha): 0
